Data on three compounds can be found in US6271266A (Takeda Chemical Industries, Ltd., priority 1996, dated 2001).

For data set [1], the system named is cultured nerve cells. The conditions noted are these: cited from earlier work.
Data set [2] concerns rat hippocampal neurons. Description: LDH leakage from cultured rat hippocampal neurons exposed to Aβ1-40. In kind it is cell-based. The procedure:
(§1) The cultured rat hippocampal neurons were prepared by the following procedure.
From the 18-day viviparous SD rat brain, the hippocampus was isolated on ice and treated with 0.25% trypsin and 0.1 mg/ml deoxyribonuclease I in Hank's solution at 37° C. for 10 minutes. The enzyme-treated cells were collected with a filter and suspended in Eagle's MEM containing 50 U/ml penicillin, 50 μg/ml streptomycin, 10% fetal calf serum, and 1% B27 Supplement (GIBCO). The suspension was diluted and seeded on a 48-well plate (COSTAR) precoated with poly-L-lysine, 100,000 cells/300 μl/well. Culture was carried out in the presence of 5% carbon dioxide gas at 37° C. […] On day 7 of culture, the medium was further replaced with MEM-N2 containing Aβ1-40 (Bachem) and the test drug, and the efficacy of the drug against the toxicity of Aβ1-40 was evaluated.
(§2) The lactate dehydrogenase (LDH) activity released extracellularly from the injured cells into the medium was assayed over 3-5 days after treatment and the toxicity was evaluated using the assayed activity as an indicator. In addition, on day 4 after addition of the drug, the cells were fixed with 4% paraformaldehyde, stained with anti-MAP2 antibody (Amersham) and randomly photographed under the microscope, and the number of neurons per visual field was counted.

The subject of data set [3] is rat hippocampal neurons. Description: Number of viable neurons (anti-MAP2 staining) after Aβ1-40. The class given is cell-based. The following applies: Aβ1-40 10 μM, day 4 after addition, FIG. 3. The procedure:
as §1
From the 18-day viviparous SD rat brain, the hippocampus was isolated on ice and treated with 0.25% trypsin and 0.1 mg/ml deoxyribonuclease I in Hank's solution at 37° C. for 10 minutes. The enzyme-treated cells were collected with a filter and suspended in Eagle's MEM containing 50 U/ml penicillin, 50 μg/ml streptomycin, 10% fetal calf serum, and 1% B27 Supplement (GIBCO). The suspension was diluted and seeded on a 48-well plate (COSTAR) precoated with poly-L-lysine, 100,000 cells/300 μl/well. Culture was carried out in the presence of 5% carbon dioxide gas at 37° C. On day 4 of culture, the medium was replaced with Eagle's MEM (MEM-N2) containing 50 U/ml penicillin, 50 μg/ml streptomycin, 10 mM HEPES-Na (pH 7.3) and N2 Supplement. On day 7 of culture, the medium was further replaced with MEM-N2 containing Aβ1-40 (Bachem) and the test drug, and the efficacy of the drug against the toxicity of Aβ1-40 was evaluated.
as §2

Data set [4] deals with patients with Alzheimer's disease. The conditions noted are these: 90 mg or 120 mg 3 times a day (270 or 360 mg per day), 6 months; cited from earlier work.
Data set [5] deals with Alzheimer type senile dementia. The following applies: cited from earlier work.
Data set [6] concerns rat retinal neuron-neuroblastoma hybrid N18-RE-105 cells. The conditions noted are these: cited from earlier work.

Take β-amyloid: the neuronal toxicity entry in data set [1] is “shows neuronal toxicity”.

On to Aβ1-40: β-amyloid protein 1-40 (Bachem), for which the “leakage of LDH activity into the medium (toxicity)” value in data set [2] (3-5 days after addition of Aβ1-40, FIG. 1) was “dose-dependent toxicity”. For the same compound, in data set [3], the number of neurons result is on record as “decline in the number of neurons”.

Turning to `COC1=C(OC)C(=O)C(CCCCCCCCCCO)=C(C)C1=O` [idebenone, 6-(10-hydroxydecyl)-2,3-dimethoxy-5-methyl-1,4-benzoquinone], the “release of LDH” value in data set [2] (idebenone 100 nM, Aβ1-40 10 μM, 3-5 days following addition, FIG. 2) is reported as “suppressed the release of LDH”. The neuronal death entry in data set [3] (idebenone 100 nM) is given as “inhibited neuronal death significantly”. Moreover, the “number of viable cells” value in data set [3] (idebenone 100 nM, anti-MAP2 antibody) is “approximately equal to the number of viable cells in the control group”. In addition, in data set [4], the GOT time course entry was “the changes were small with substantially no difference from the control values” and the GPT time course entry is given as “the changes were small with substantially no difference from the control values”. Also, in data set [5] (90 mg daily to adult patients), the “efficacy in Alzheimer type senile dementia” value is on record as “efficacy”. Besides, the “clinical effect in Alzheimer type senile dementia” value in data set [5] (high doses (270 mg-360 mg day per adult)) was “clinically effective”. In addition, in data set [6], the glutamate-induced neuronal death entry is “suppresses glutamate-induced neuronal death” and the “neuroprotection / reactive oxygen species scavenging” value is listed as “exerts the neuroprotection by the reactive oxygen species scavenging activity”.
